# Patent US20120328719A1, “EXTERNAL PREPARATION FOR SKIN” (Shiseido Company, Ltd., priority 2010, published 2012)
# Key:
# [1] = test system: skin model (EFT-400, MatTek Corp.); test: Immunostaining of skin models; format: cell-based; conditions: skin model sections, vs control group; for expression level of heparan sulfate (immunostaining): days 4 and 8 of culturing, FIG. 4E-4H; for expression level of loricrin (immunostaining): FIG. 5A-5D; for expression level of filaggrin (immunostaining): FIG. 5E-5H
# Experimental: A skin model (EFT-400, MatTek Corp.) was cultured in a special-purpose medium (EFT-400-ASY, MatTek Corp.). Dimethylsulfoxide (DMSO) and ethanol were added to the special-purpose medium to a final concentration of 0.1% for use as a control group, 50 mM 1-[4-(1H-benzoimidazol-2-yl)-phenyl]-3-[4-(1H-benzoimidazol-2-yl)-phenyl]urea (solvent: DMSO) were added to the special-purpose medium to a final concentration of 50 μM for use as a heparanase inhibitor group, 10 mM N-hydroxy-2-[[(4-methoxyphenyl)sulfonyl](3-picolyl)amino]-3-methylbutaneamide hydrochloride (CGS27023A, solvent: ethanol) were added to the special-purpose medium to a final concentration of 10 μM for use as an MMP inhibitor group, and 50 mM 1-[4-(1H-benzoimidazol-2-yl)-phenyl]-3-[4-(1H-benzoimidazol-2-yl)-phenyl]urea (solvent: DMSO) and 10 mM CGS27023A (solvent: ethanol) were added to the special-purpose medium to final concentrations of 50 μM and 10 μM, respectively, for use as a combination heparanase inhibitor+metalloproteinase (MMP) inhibitor group. The medium was replaced daily at 2 mL/well, and the skin model was recovered and used for experimentation on days 4 and 8 of culturing. In addition, during replacement of the medium, all of the culture fluid was collected and stored at −80° C.° for use in the experiments described below.
# The skin models following culturing were cut in half with a scalpel and placed in acetone at 4° C. followed by allowing to stand undisturbed for 48 hours at 4° C. The solution was replaced with acetone, methyl benzoate and xylene in that order followed by embedding in paraffin to prepare paraffin blocks in accordance with the AMeX method. Tissue sections having a thickness of 3 μm were prepared followed by immunostaining with perlecan (FIGS. 4A to 4D), heparan sulfate (FIGS. 4E to 4H), loricrin (FIGS. 5A to 5D), filaggrin (FIGS. 5E to 5H) and Ki67 (FIG. 6) on days 4 and 8 of culturing. […] In addition, in the groups containing heparanase inhibitor, the presence of proliferative cells positive for Ki67 was clearly determined to be maintained.
# [2] = Measurement of moisture transpiration rate constants (filter paper weight loss); format: physicochemical; conditions: 10 μl on filter paper, slope 3 to 8 min, FIG. 3
# Experimental: Heparan sulfate (n=5), chondroitin sulfate A (n=5), chondroitin sulfate B (n=5), keratan sulfate (n=5) and hyaluronic acid (n=5) were dissolved in MilliQ to prepare 0.2% aqueous solutions of each, and 5.0% glycerin (n=5) and MilliQ were prepared for use as a comparative sample (n refers to the respective number of samples). Filter paper cut to a size of 2 cm×2 cm was placed on a balance, and the filter paper was impregnated with 10 μl of each solution followed by measuring the weight of the filter paper for 8 minutes at 1 minute intervals. The weight (mg) of the filter paper from 3 to 8 minutes after the start of measurement was plotted on the vertical axis, elapsed time (min) was plotted on the horizontal axis, and the slope (mg/min) of the resulting line was calculated as the moisture transpiration rate constant (FIG. 3).
# [3] = test system: skin model (EFT-400, MatTek Corp.); test: Measurement of hyaluronic acid levels in cultured skin model; format: cell-based; conditions: heparanase inhibitor 50 μM, CGS27023A 10 μM, FIG. 1B
# Experimental: A skin model (EFT-400, MatTek Corp.) was cultured in a special-purpose medium (EFT-400-ASY, MatTek Corp.). […]
# Measurement of hyaluronic acid levels was carried out on the aforementioned cultured control group (n=5), MMP inhibitor group (n=5), heparanase inhibitor group (n=5) and combination MMP inhibitor+heparanase inhibitor group (n=5) (n refers to the number of each skin model used in testing). […] The culture supernatants stored at −80° C. were then thawed and hyaluronic acid levels in these solutions were then measured with a hyaluronic acid assay kit (Seikagaku Corp.).
Compound,expression level of heparan sulfate (immunostaining) [1],expression level of loricrin (immunostaining) [1],expression level of filaggrin (immunostaining) [1],moisture transpiration rate constant ([2]; 5.0% glycerin comparative sample),hyaluronic acid levels in culture supernatant [3],moisture transpiration rate constant ([2]; 0.2% aqueous solution)
"COc1ccc(S(=O)(=O)N(Cc2cccnc2)C(C(=O)NO)C(C)C)cc1.Cl (stereo not drawn) [MMP inhibitor, N-hydroxy-2-[[(4-methoxyphenyl)sulfonyl](3-picolyl)amino]-3-methylbutaneamide hydrochloride]",increased,increased,increased,–,–,–
OCC(O)CO [glycerin],–,–,–,roughly the same,–,–
"O=C(Nc1ccc(-c2nc3ccccc3[nH]2)cc1)Nc1ccc(-c2nc3ccccc3[nH]2)cc1 [heparanase inhibitor, 1-[4-(1H-benzoimidazol-2-yl)-phenyl]-3-[4-(1H-benzoimidazol-2-yl)-phenyl]urea]",increased,increased,increased,–,significant decreases,–
hyaluronic acid,–,–,–,–,–,remarkably low
